Legend:
[1] = tested on: prostate adenocarcinoma (PC-3) cell line; assay: MTT dark and light-induced cytotoxicity in PC-3; type: cell-based, human; conditions: for IC50: Homo sapiens, 24 h incubation; for tumor selectivity ratio (TSR): IC50 NHDF irradiated/IC50 PC-3 irradiated; for Photodynamic ratio (PTR): PC-3, IC50 dark/IC50 irradiated
Method: For potential applicability as photosensitizers in PDT, these candidates are expected to display cytotoxic effects only after photoactivation, namely, and preferably restricted to target tissue cells, without inducing damage to healthy counterparts. To evaluate this, prostate adenocarcinoma PC-3 cells and non-tumoral NHDF fibroblasts were incubated with increasing concentrations of the squaraine dyes for 24 h. Subsequently, the cells were irradiated using an LED system centered at 663 nm, a wavelength close to the absorption maximum of the monomeric dye forms. Twenty-four hours post-irradiation, cellular metabolic activity was assessed by the MTT assay.
The in cell photocytotoxicity of the squaraine dyes was assessed using the MTT assay. When cells reached 90–95% confluence, they were trypsinized using a trypsin-EDTA solution (0.125 g/L trypsin, 0.02 g/L EDTA), counted via trypan-blue exclusion in a Neubauer chamber, and diluted to 2 × 10^4 cells/mL. A 100 µL aliquot of this suspension was seeded into each well of 96-well plates and incubated for 48 h to allow for cell attachment and resumption of proliferation.
After this period, the medium was removed, and cells were treated with various concentrations of the squaraine dyes (0.01, 0.1, 1, 2.5, 5, and 10 µM) in the appropriate culture medium. […] Negative controls consisted of cells exposed only to culture medium. All experiments were performed in quadruplicate and independently repeated.
After 24 h of exposure to the dyes, the cells were subjected to two different irradiation conditions: the first group was not irradiated and was protected from ambient light for 21 min, and the second group was irradiated for 7 min.
Twenty-four hours post-irradiation, the culture medium was removed, cells were washed with 100 µL PBS, and 100 µL of MTT solution (5 mg/mL in serum- and antibiotic-free medium) was added per well. Cells were incubated for 4 h at 37 °C, after which the supernatant was discarded, and the formazan crystals were solubilized in dimethyl sulfoxide. Absorbance was measured at 570 nm using a Bio-Rad xMark microplate reader.
Cell viability was expressed as the percentage of absorbance in treated samples relative to the untreated negative control. Data were statistically analyzed by ordinary two-way ANOVA followed by the Šidák multiple comparisons test, comparing irradiated and non-irradiated conditions at the same concentration, with differences considered statistically significant at a p-value < 0.05. Half-maximal inhibitory concentration values reported in this work were obtained by fitting the data to a sigmoidal model with a 95% confidence interval. All assays were performed in quadruplicate and replicated independently at least twice. Phototoxicity and tumor selectivity ratios were quantified according to Equations (6) and (7):(6) PTR = IC50 dark condition/IC50 irradiated condition (7) TSR = IC50 for NHDF cells under irradiated condition/IC50 for cancer cell line under irradiated condition
Irradiation was performed using a light-emitting diode array centered at 663 ± 8 nm to match the absorption maximum of the dyes. The LED (Roithner; 8.3 mW radiant flux) was integrated into flat-bottom 96-well plates and powered by a regulated current source. The irradiance was 15.8 mW/cm^2, and the total energy delivered per well was 3.49 J after 7 min, ensuring precise light dosing for all experiments.

[2] = Photophysical properties in phosphate buffer in the absence of HSA; type: physicochemical; conditions: phosphate buffer (pH 7.4)
Method: (§1) Squaraine dyes were dissolved in dimethyl sulfoxide, whereas zinc phthalocyanine required dimethylformamide as a solvent. All stock solutions were prepared at 0.67 mM concentration and stored in the dark at 4 °C until further use. For spectroscopic characterization, 1.0 µM stock solutions of the squaraine dyes in dimethyl sulfoxide were serially diluted into a series of solvents (chloroform, dimethyl sulfoxide, methanol, and phosphate buffer) to obtain at least five defined concentrations. The absorption spectra of these dilutions were recorded and used to calculate molar extinction coefficients according to the Beer–Lambert law. Additional working solutions at a 1.0 µM concentration were prepared in dimethyl sulfoxide and buffer, and 1.0% Triton X-100 was added where required to investigate dye aggregation.
For fluorometric experiments, the squaraine stock solutions were initially prepared in dimethylformamide and subsequently diluted with phosphate buffer for the protein–dye interaction analysis. Human serum albumin stock solution was then added to these mixtures, while keeping the dye concentration fixed at 2.0 µM and varying the protein concentration from 0 to 3.0 µM (0.0 to 3.0 µM for squaraines 5, 9, and 11, and from 0 to 6.0 µM for squaraine 13). Fluorescence intensities of the resulting solutions were recorded after 0, 3, and 24 h of incubation with the protein. The excitation wavelengths and excitation/emission slit widths used for the measurements were optimized for each dye, as listed in Table 6.

[3] = Absorption and fluorescence photophysical characterization in organic solvents; type: physicochemical
Method: UV–Vis spectra were recorded on a Perkin-Elmer Lambda 25 spectrophotometer (Perkin-Elmer, Waltham, MA, USA) using Hellma Analytics quartz cuvettes (1 cm path length; Hellma Analytics, Müllheim, Germany). Spectral data are reported as maximum absorption wavelength (λmax, nm) and molar absorptivity (ε, M^−1·cm^−1). The latter was calculated according to the Lambert–Beer law from calibration plots of absorbance at λmax versus known dye concentrations.
Ultraviolet–visible absorption spectra were obtained at room temperature using a PerkinElmer Lambda 25 spectrophotometer, while fluorescence emission data were collected on a Horiba Jobin Yvon FluoroMax-4 fluorometer. Singlet oxygen and photostability tests and measurements were carried out on a BioRad xMark microplate reader (Bio-Rad, Hercules, CA, USA).
as §1, with “Squaraine dyes were dissolved in dimethyl sulfoxide, whereas zinc phthalocyanine required dimethylformamide as a solvent.” left out
The emission areas were integrated, and relative quantum yields were calculated following established methodologies, considering both absorbance at the excitation wavelength and the refractive index of the solvent. The calculation was performed using Equation (2), where “dye” and “ref” denote the squaraine dyes and the reference compound, respectively; I corresponds to the integrated emission intensity, A to the absorbance value at the excitation wavelength, and η to the refractive index of the solvent:(2) ΦF(dye)= ΦF(Std)Idye/Iref Aref/Adye ηdye2/ηref2

[4] = light or radiation study, PC-3, Light, 7 min LED 663 nm, MTT 24 h post-irradiation
[5] = DMSO, relative to zinc phthalocyanine

| SMILES | IC50 [1, 4] [µM] | IC50 ([1]; PC-3, Dark, MTT 24 h later) [µM] | absorption maximum (λabs) [2] [nm] | fluorescence quantum yield (ΦF) [2] | molar absorption coefficient (ε) [2] [M⁻¹ cm⁻¹] | Stokes shift (ΔS) ([3]; DMSO) [nm] | absorption maximum (λabs) ([3]; DMSO) [nm] | emission maximum (λem) ([3]; DMSO) [nm] | molar absorption coefficient (ε) ([3]; DMSO) [M⁻¹ cm⁻¹] | fluorescence quantum yield (ΦF) [3, 5] | Stokes shift (ΔS) ([3]; chloroform (CFM)) [nm] | absorption maximum (λabs) ([3]; chloroform (CFM)) [nm] | emission maximum (λem) ([3]; chloroform (CFM)) [nm] | fluorescence quantum yield (ΦF) ([3]; chloroform (CFM)) | molar absorption coefficient (ε) ([3]; chloroform (CFM)) [M⁻¹ cm⁻¹] | Stokes shift (ΔS) ([3]; methanol (MeOH)) [nm] | absorption maximum (λabs) ([3]; methanol (MeOH)) [nm] | emission maximum (λem) ([3]; methanol (MeOH)) [nm] | fluorescence quantum yield (ΦF) ([3]; methanol (MeOH)) | molar absorption coefficient (ε) ([3]; methanol (MeOH)) [M⁻¹ cm⁻¹] | other results |
| --- | --- | --- | --- | --- | --- | --- | --- | --- | --- | --- | --- | --- | --- | --- | --- | --- | --- | --- | --- | --- | --- |
| CC1(C)C(=CC2=C(NCc3ccc4ccc5cccc6ccc3c4c56)C(=CC3=[N+](CCCc4ccccc4)c4ccccc4C3(C)C)C2=O)N(CCCc2ccccc2)c2ccccc21.[I-] [Dye 14, 2-({3-[3,3-dimethyl-1-(3-phenylpropyl)indolin-2-ylidenemethyl]-4-oxo-2-[(pyren-1-ylmethyl)amino]cyclobut-2-en-1-ylidene}methyl)-3,3-dimethyl-1-(3-phenylpropyl)-indol-1-ium Iodide] | > 10 | > 10 | 672 | 0.00 | 67000 | 15 | 661 | 676 | 197000 | 0.05 | 13 | 658 | 671 | 0.06 | 281000 | 13 | 650 | 663 | 0.01 | 285000 | – |
| CNC1=C(C=C2N(CCCc3ccccc3)c3ccccc3C2(C)C)C(=O)C1=CC1=[N+](CCCc2ccccc2)c2ccccc2C1(C)C.[I-] [Dye 11, 2-{3-[3,3-Dimethyl-1-(3-phenylpropyl)indolin-2-ylidenemethyl]-2-(methylamino)-4-oxocyclobut-2-en-1-ylidenemethyl}-3,3-dimethyl-1-(3-phenylpropyl)-indol-1-ium Iodide] | 0.09 | 1.44 | 655 | 0.01 | 71000 | 12 | 663 | 675 | 212000 | 0.04 | 13 | 657 | 670 | 0.10 | 202000 | 11 | 650 | 661 | 0.01 | 174000 | tumor selectivity ratio (TSR) [1]: 36.0; Photodynamic ratio (PTR) [1]: 16 |
| CC1(C)C(=CC2=C([O-])C(=CC3=[N+](CCCc4ccccc4)c4ccccc4C3(C)C)C2=O)N(CCCc2ccccc2)c2ccccc21 [Dye 5, 4-[3,3-Dimethyl-1-(3-phenylpropyl)-indol-1-ium-2-ylmethylene]-2-[3,3-dimethyl-1-(3-phenylpropyl)indolin-2-ylidenemethyl]-3-oxocyclobut-1-en-1-olate] | 0.898 | > 10 | 605 | 0.02 | 89000 | 13 | 646 | 659 | 293000 | 1.00 | 1 | 638 | 639 | 0.46 | 428000 | 13 | 631 | 644 | 0.16 | 422000 | reduction in viability ([1]; PC-3 cells, irradiated, 1.0 μM): approximately 60%; Stokes shift (ΔS) [2]: 91 nm; emission maximum (λem) [2]: 696 nm |
| CC1(C)C(=CC2=C(N)C(=CC3=[N+](CCCc4ccccc4)c4ccccc4C3(C)C)C2=O)N(CCCc2ccccc2)c2ccccc21.[I-] [Dye 9, 2-{2-Amino-3-[3,3-dimethyl-1-(3-phenylpropyl)indolin-2-ylidenemethyl]-4-oxocyclobut-2-en-1-ylidenemethyl}-3,3-dimethyl-1-(3-phenylpropyl)-indol-1-ium Iodide] | 0.093 | 1.21 | 605 | 0.00 | 58000 | 12 | 652 | 664 | 232000 | 0.12 | 9 | 647 | 656 | 0.08 | 330000 | 12 | 640 | 652 | 0.02 | 303000 | tumor selectivity ratio (TSR) [1]: 40.8; Photodynamic ratio (PTR) [1]: 13; Stokes shift (ΔS) [2]: 37 nm; emission maximum (λem) [2]: 642 nm |

From publication PMC12652113, “Fluorescent Albumin-Binding N-Propylbenzene Indolenine-Based Squaraines as Potential Candidates for Prostate Cancer Photodynamic Therapy Photosensitizers” (International Journal of Molecular Sciences, 2025)
